Measurements taken from patent US4440757A, “Pharmaceutical composition comprising derivative of aminobenzoic acid for regulating prostaglandin” (priority 1978, dated 1984).

Experiments:
Ehrlich cancer = assay: Cancer proliferation and PGE in the cancer cells (Ehrlich); type: in vivo, C57BL/6 mouse; conditions: 100 mg/kg i.p. every other day, 14th day; for Weight of cancer: control 1.30; for Content of PGE in the cancer: control 1.77
Experimental: Following the same method as in Example 12, the anti-cancer action against transplanted Ehrlich cancer in C57BL/6 mouse, and the amount of PGE in the cancer cells in proliferation in the living body of the mouse were examined in the cases where each one compound of the present invention, Specimens Nos. 1, 2, 3, 4, 5, 6, 8, 9, 10 and 11 was intraperitoneally administered every other day from the next day of the transplantation in total 6 times at a dosage of 100 mg/kg.
The results of determination of the weight of cancer extirpated from the sacrificed mouse on 14th day of the transplantation of the cancer cells, 1×10^6 in number per animal, and content of PGE of the extirpated cancer are shown in the following Table 13: […]

[1] = Acute oral toxicity (Litchfield-Wilcoxon); conditions: in vivo, mouse, 7 days
Experimental: The acute oral toxicity of the present substances were examined by using groups of ICR-JCL mouse and orally administering each of the representatives of present substances forcibly as an aqueous solution in distilled water or as an aqueous suspension also in distilled water at predetermined dosages, respectively. After observing the toxicological symptoms, if any, for 6 days, and recording the mortality until 7th day of the administration, LD50 (acute oral) was calculated by the method of Litchfield-Wilcoxon, and autopsy was carried out on dead mice and live mice to obtain informations.

[2] = system: Salmonella typhimurium TA 100; assay: Mutagenicity, reversion assay, TA 100; type: cell-based; conditions: 5,000 μg/plate; control 149
Experimental: (ii) The strains TA 98 and TA 100 (both are histidine requiring) of Salmonella typhimurium were used in the reversion assay.
Into 2 ml of a soft agar culture medium (the medium itself contains 6 g of sodium chloride and 6 g of agar in 1000 ml of distilled water) to which one tenth by volume of an aqueous solution of 0.5 mM of biotin and 0.5 mM of histidine had been added, 0.1 ml of the bacterial suspension and 0.1 ml of an aqueous solution of the present substance were admixed and the mixture was layered on the minimum agar culture medium. After 2 days of incubation at 37° C., the number of revertant colonies was counted. Furylfuramide (AF-2) was used as the positive control.

male Donryu rats = assay: Stress ulcer of the stomach and 6-keto PGF1α; type: in vivo; conditions: 1 g/kg p.o.; for Ulcer-coefficient: 7 hours stress, control 100; for Amount of 6-keto PGF1α: plasma, control 3.3
Experimental: Three groups of male Donryu rats of body weight of 220 to 250 g after 23.5 hours of fasting were administered orally with the present substance (each of Specimen Nos. 4, 7 and 8) at a rate of one gram/kg dissolved in 8 ml (per 200 g body weight) of an aqueous physiological saline solution.
These three groups of rats and another group of rats equally fasted for 23.5 hours and then administered with only the aqueous physiological saline solution were put into the stresscage, and soaked in water at a temperature of 23° C. to the depth of their breast to load the stress on the rats.
After 7 hours of soaking, the rats were pulled out from water and were immediately sacrificed to collect the whole blood, and their stomachs were extirpated. The plasma fraction prepared from the blood was extracted with ether and the etherextract was separated by thin layer chromatography. The separated extract, after converted to the respective methyloximesilyl derivatives, was subjected to gaschromatography-mass spectorography to determine the content of 6-keto PGF1α.
An aqueous 1% solution of formaldehyde was injected into the extirpated stomach and after 10 min of injection, the stomach was cut to be opened at the greater curvature side to examine the mucous membrane of the gastric body. The longer span of each erosion in the mucous membrane of a rat, if any, was measured microscopically, and its sum expressed by millimeter was taken as an ulcer coefficient of the rat.

cats = assay: Pyrexia caused by pyrogen (Shigella dysentriae o-antigen) and PGE in c.s.f.; type: in vivo, cat
Experimental: The experiments were carried out on cats weighing 3 to 3.5 kg. In an aseptic operation under intraperitoneally administered sodium pentobarbitone at 36 mg/kg, a Collison cannula was implanted into the rostral part of the third ventricle of the cat.
A few days after implantation of the cannula, when the cat had recovered from the operation, specimens of cerebrospinal fluid were collected without anesthesia, whilst the cat was kept unrestrained in its cage, and its rectal temperature was recorded.
The specimens of cerebrospinal fluid (c.s.f.) were assayed immediately after collection, or after having been stored at -2° for 24 to 48 hours, and the determination of PGE in the specimens was carried out as in Example 9 using ^3 H-Prostaglandin E Radioimmunoassay Kit (manufactured by Clinical Assay Co., USA). Rectal temperature was recorded at room temperature (21° to 23° C.) with the thermistor probe inserted about 10 cm deep into the rectum.
As the pyrogen, somatic type o-antigen of Shigella dysentriae was used, and after dissolving 75 ng of the pyrogen into 0.15 ml of a pyrogen-free artificial c.s.f., the solution was injected into the third ventricle through the implanted cannula to induce fever.
After 2 hours of administration, the rectal temperature was measured to confirm the occurrence of pyrexia and then the present substance (each of Specimens Nos. 4, 7 and 8) was forcibly administered orally as an aqueous solution in distilled water at a rate of 100 mg/kg, control being administered only with distilled water in this time.
The rectal temperature of all animals was measured after one hour of the administration of the present substance.
The c.s.f. for the determination of its content of PGE was collected respectively before and after 2 hours of the injection of the pyrogen and after one hour of the administration of the present substance.

thoracic aorta, PGI2 = assay: PGI2 production in arterial tissue of diabetic rats; type: in vivo, male Sprague-Dowley rats; conditions: 100 mg/kg p.o., diabetic rat; not administered 0.07, normal 0.26
Experimental: Groups of male Sprague-Dowley rats of body weight of about 200 g are used for the present experiments. Some groups of the rats were intravenously administered with streptozotocin at 80 mg/kg one to three months in advance of the beginning of the present experiment to be in a state of diabetes mellitus. Those rats of the same strain, the same sex and the same age without being administered with streptozotocin were used as control.
The present substances (Specimens Nos. 4, 7 and 8) were respectively administered to the groups of rats suffering from the artificial diabetes mellitus forcibly by oral route at a rate of 100 mg/kg as an aqueous solution in distilled water.
In the next place, the amount of prostaglandin I2 produced in the arterial tissue was measured as follows:
Thoracic aorta of the rat was rapidly extirpated, washed with Krebs' buffer solution at a temperature of 4° C. and cut into thin rings of 1 to 2 mg in weight. Then, into 200 microliters of Krebs' buffer solution, 60 mg of the thus cut aorta were added and the mixture was incubated for 3 min at 22° C.
The amount of prostaglandin I2 (PGI2) produced by the cut aorta was determined on the supernatant liquid (1 to 10 microliters) of the above-mentioned incubated culture in the same manner as in Example 2 using the suppressing action of platelet aggregation as an index, however, using adenosine diphosphate as the agglutinating agent. After preparing a standard calibration curve using an authentic specimen of PGI2, the content of PGI2 of the above-mentioned supernatant liquid was obtained from the standard curve in ng/mg of wet weight of the arterial tissue.

[3] = 1 hour after admin. Specimen, 100 mg/kg p.o., control 10
[4] = 1 hour after admin. Specimen, 100 mg/kg p.o., control 40.7
[5] = 2 hours after admin. pyrogen (before dosing)
[6] = before admin. pyrogen (before dosing)

O=C(O)c1ccc(NC2OC[C@@H](O)[C@H](O)[C@H]2O)cc1 (stereo partly drawn) [Specimen No. 7, Sodium p-aminobenzoate-N--D-xyloside]
Weight of cancer (Ehrlich cancer): 0.75 g | Content of PGE in the cancer (Ehrlich cancer): 3.98 ng/g | LD50 at 168 h [1]: 11800 mg/kg | Number of revertant colonies TA 100 [2]: 58 number per plate | Ulcer-coefficient (male Donryu rats): 58% | Amount of 6-keto PGF1α (male Donryu rats): 3.9 ng/mL | Amount of PGE in c.s.f. (cats; [3]): 6 ng/ml of c.s.f. | Rectal temperature (cats; [4]): 39.5 °C | Amount of PGE in c.s.f. (cats; [5]): 16 ng/ml of c.s.f. | Rectal temperature (cats; [5]): 41.1 °C | Amount of PGE in c.s.f. (cats; [6]): 2.4 ng/ml of c.s.f. | Rectal temperature (cats; [6]): 38.8 °C | PGI2 (thoracic aorta, PGI2): 0.22 ± 0.02 ng/mg wet tissue

C[C@@H]1OC(Nc2ccc(C(=O)O)cc2)[C@H](O)[C@H](O)[C@H]1O (stereo partly drawn) [Specimen No. 8, Sodium p-aminobenzoate-N--L-rhamnoside]
Weight of cancer (Ehrlich cancer): 0.72 g | Content of PGE in the cancer (Ehrlich cancer): 4.03 ng/g | LD50 at 168 h [1]: 12800 mg/kg | Number of revertant colonies TA 100 [2]: 73 number per plate | Ulcer-coefficient (male Donryu rats): 55% | Amount of 6-keto PGF1α (male Donryu rats): 3.6 ng/mL | Amount of PGE in c.s.f. (cats; [3]): 8 ng/ml of c.s.f. | Rectal temperature (cats; [4]): 40.0 °C | Amount of PGE in c.s.f. (cats; [5]): 13 ng/ml of c.s.f. | Rectal temperature (cats; [5]): 41.5 °C | Rectal temperature (cats; [6]): 39.1 °C | PGI2 (thoracic aorta, PGI2): 0.18 ± 0.04 ng/mg wet tissue

O=C(O)c1ccc(NC2O[C@H](CO)[C@@H](O)[C@H](O)[C@@H]2O)cc1 (stereo partly drawn) [Specimen No. 4, Sodium p-aminobenzoate-N--D-mannoside]
Weight of cancer (Ehrlich cancer): 0.56 g | Content of PGE in the cancer (Ehrlich cancer): 4.19 ng/g | LD50 at 168 h [1]: > 10000 mg/kg | Number of revertant colonies TA 100 [2]: 138 number per plate | Ulcer-coefficient (male Donryu rats): 62% | Amount of 6-keto PGF1α (male Donryu rats): 3.8 ng/mL | Amount of PGE in c.s.f. (cats; [3]): 5 ng/ml of c.s.f. | Rectal temperature (cats; [4]): 39.9 °C | Amount of PGE in c.s.f. (cats; [5]): 11 ng/ml of c.s.f. | Rectal temperature (cats; [5]): 41.3 °C | Amount of PGE in c.s.f. (cats; [6]): 2.6 ng/ml of c.s.f. | Rectal temperature (cats; [6]): 39.0 °C | PGI2 (thoracic aorta, PGI2): 0.19 ± 0.04 ng/mg wet tissue
